Assay results published in US20140051744A1, “Markers For Assessing the Susceptibility of Cancer to Survivin-Targeting miRNA Treatment” (The Regents of the University of Colorado, A Body Corporate, priority 2012, published 2014).

Tests used:
[1] = test system: Survivin; assay: Western blot of Survivin protein after miRNA mimic transfection in erbB2+ breast cancer cells; type: cell-based, human; conditions: mimic transfection 24 hrs
Description: (§1) FIGS. 1A-B. Transfection of the mimics of miR-203 and/or miR-542-3p dramatically increases their expression levels and specifically down-regulates Survivin, but not other functionally related molecules, such as Mcl-1 and Bcl-xL. SKBR3.B3.1 and […] cells were transfected with either control miRNA mimic, or miR-203 mimic, or miR-542-3p mimic alone, or the combination of miR-203 and miR-542-3p mimics for 24 hrs. (FIG. 1A) Cells were collected and subjected to total RNA extraction, inclusive of the small RNA fraction. The expression levels of miR-203 and miR-542-3p were measured by qRT-PCR using TaqMan miRNA assays. All results were normalized with the internal control RNU6B. Bars, SD. […] (FIG. 1B) Cells were collected and subjected to western blot analyses with specific antibodies directed against Survivin, Mcl-1, Bcl-xL, or β-actin. The densitometry analyses of Survivin signals were shown underneath, and the arbitrary numbers indicate the intensities of each cell line relative to controls, defined as 1.0.
MDA-MB-453 and BT474 cells (FIG. 2A), and BT474-HR20 cells (FIG. 2B) were transfected with either control miRNA mimic, or miR-203 mimic, or miR-542-3p mimic alone, or the combination of miR-203 and miR-542-3p mimics for 24 hrs. Cells were then collected and subjected to western blot analyses with specific antibodies directed against Survivin, Mcl-1, Bcl-xL, or β-actin. The densitometry analyses of Survivin signals were shown underneath, and the arbitrary numbers indicate the intensities of each cell line relative to controls, defined as 1.0.
(§2) Transfection of cells with miRNA mimic. Cell transfection with the miRIDIAN miRNA mimics or negative controls was carried out using HiPerFect Transfection Reagent (QIAGEN) according to the manufacturer's protocol.
(§3) Western blot analysis. Protein expression levels were determined by western blot analysis as described previously (Wang et al., 2010; Huang et al., 2009; Huang et al., 2011). Equal amounts of total cell lysates were boiled in Laemmli SDS-sample buffer, resolved by SDS-PAGE, transferred to nitrocellulose membrane (Bio-Rad Laboratories, Hercules, Calif.), and probed with the primary antibodies described in the figure legends. After the blots were incubated with horseradish peroxidase-labeled secondary antibody, the signals were detected using the enhanced chemiluminescence reagents (GE Healthcare Bio-Sciences Corp., Piscataway, N.J.).

[2] = test system: miR-203 and miR-542-3p expression levels; assay: qRT-PCR (TaqMan miRNA assays) of miRNA levels after mimic transfection; type: cell-based, human; conditions: SKBR3.B3.1 and SKBR3.B3.2 cells, 24 hrs, normalized to RNU6B, vs control mimic
Description: as §1
Analysis of miRNA expression. […] The expression levels of miR-203 and miR-542-3p were then measured by quantitative real-time (qRT)-PCR using TaqMan MicroRNA Assays (Assay ID: 000507 and 001284, respectively; Applied Biosystems). […] The relative miRNA levels were calculated using the comparative Ct method (AACt) as reported (Howe et al., 2011). […]

[3] = test system: PARP cleavage and caspase-3 activation; assay: Western blot of PARP cleavage and cleaved caspase-3 after mimic transfection plus paclitaxel; type: cell-based, human; conditions: SKBR3.B3.1 and SKBR3.B3.2 cells, mimic 24 hrs then paclitaxel 24 hrs; for paclitaxel-induced PARP cleavage and caspase-3 activation (cleaved caspase-3): vs paclitaxel alone in control mimic transfection
Description: (FIGS. 3A-B) SKBR3.B3.1 and SKBR3.B3.2 cells were transfected with either control miRNA mimic, or miR-203 mimic, or miR-542-3p mimic alone, or the combination of miR-203 and miR-542-3p mimics for 24 hrs. Cells were then untreated or treated with paclitaxel for another 24 hrs. Cells were collected and subjected to western blot analyses of PARP, cleaved caspase-3 (C-Caps-3), β-actin (FIG. 3A), or a specific apoptotic ELISA (FIG. 3B). C & D, BT474-HR20 cells were transfected with either control miRNA mimic, or miR-203 mimic, or miR-542-3p mimic alone, or the combination of miR-203 and miR-542-3p mimics for 24 hrs. Cells were then untreated or treated with paclitaxel for another 24 hrs. Cells were collected and subjected to western blot analyses of PARP, cleaved caspase-3 (C-Caps-3), or β-actin (FIG. 3C), or a specific apoptotic ELISA (FIG. 3D).
as §2, §3

[4] = test system: Mcl-1; assay: Western blot of Mcl-1 protein after miRNA mimic transfection; type: cell-based, human; conditions: SKBR3.B3.1 and SKBR3.B3.2 cells, mimic transfection 24 hrs
Description: as §1, with “The densitometry analyses of Survivin signals were shown underneath, and the arbitrary numbers indicate the intensities of each cell line relative to controls, defined as 1.0.” left out
(§4) Western blot analysis. Protein expression levels were determined by western blot analysis as described previously (Wang et al., 2010; Huang et al., 2009; Huang et al., 2011). […] After the blots were incubated with horseradish peroxidase-labeled secondary antibody, the signals were detected using the enhanced chemiluminescence reagents (GE Healthcare Bio-Sciences Corp., Piscataway, N.J.).

[5] = test system: Survivin; conditions: cells transfected with miR-542-3p mimics vs negative control-transfected cells; cited from earlier work
[6] = test system: Bcl-xL; assay: Western blot of Bcl-xL protein after miRNA mimic transfection; type: cell-based, human; conditions: SKBR3.B3.1 and SKBR3.B3.2 cells, mimic transfection 24 hrs
Description: as §1, with “The densitometry analyses of Survivin signals were shown underneath, and the arbitrary numbers indicate the intensities of each cell line relative to controls, defined as 1.0.” left out
as §4

[7] = test system: 18rRNA; conditions: overexpression of miR-542-3p; cited from earlier work
[8] = test system: cancer cell proliferation; conditions: ectopic expression; through G1 and G2/M cell cycle arrest; cited from earlier work
[9] = test system: Src-transformed fibroblasts and human cancer cells; conditions: ectopic expression in Src-transformed fibroblasts and human cancer cells; cited from earlier work
[10] = test system: HCC cells; conditions: expression of miR-203 in HCC cells lacking their expression; cited from earlier work
[11] = MDA-MB-453, BT474 and BT474-HR20 cells
[12] = SKBR3.B3.1 and SKBR3.B3.2 cells, vs control mimic

Substance	protein levels of Survivin [1, 11]	inhibition on Survivin compared with the other single mimic ([1]; SKBR3.B3.1 and SKBR3.B3.2 cells)	protein levels of Survivin [1, 12]	expression levels of miR-203 and/or miR-542-3p following mimic(s) transfection [2]	enhancement of paclitaxel-induced PARP cleavage and caspase-3 activation compared with the other single mimic [3]	paclitaxel-induced PARP cleavage and caspase-3 activation (cleaved caspase-3) [3]	effect on MCl-1 protein [4]	gene down-regulation in microarray analysis [5]	effect on BCl-xL protein [6]	18rRNA levels [7]	cancer cell proliferation [8]	tumor growth [9]	cell growth [10]
miR-542-3p: miRIDIAN miRNA specific mimic of miR-542-3p (sequence UGUGACAGAUUGAUAACUGAAA, MIMAT0003389), purchased from Thermo Scientific Dharmacon (commercial miRIDIAN mimic, chemistry not given here)	able to down-regulate Survivin	more profound inhibition on Survivin than miR-203	clearly reduced the protein levels of Survivin	dramatically increased	more profound effects than miR-203	clearly enhanced paclitaxel-induced PARP cleavage	no effect	most down-regulated candidate gene was Survivin	no effect	significantly decreased	inhibited cancer cell proliferation	suppresses tumor growth	
miR-203: miRIDIAN miRNA specific mimic of miR-203 (sequence GUGAAAUGUUUAGGACCACUAG, MIMAT0000264), purchased from Thermo Scientific Dharmacon (commercial miRIDIAN mimic, chemistry not given here)	able to down-regulate Survivin		clearly reduced the protein levels of Survivin	dramatically increased		clearly enhanced paclitaxel-induced PARP cleavage	no effect		no effect				inhibited cell growth
